Twelve compounds from patent US20240217982A1, “KRAS INHIBITORS” (Bristol-Myers Squibb Company, priority 2021, published 2024) can be followed below.

A value given as a limit tells only on which side of the number the result lay.

The target of assay [1] is T1, KRAS G12D (Homo sapiens (Human), UniProt P01116, G12D). The experiment in a line: KRAS G12D Nucleotide Exchange Assay (HTRF). The format is biochemical. To be noted: recombinant GDP-loaded KRAS G12D (20 nM), BIODIPY-labeled GDP (400 nM), recombinant SOS (10 nM), HTRF signal. On the procedure:
Recombinant GDP-loaded KRAS G12D (20 nM) was treated with compound at room temperature for 20 minutes in assay buffer (10 mM Hepes pH 7.4, 150 mM NaCl, 5 mM MgCl2, 0.0025% Igepal-CA630, 0.05% BSA, 1 mM DTT, 0.5 nM SA-Tb). BIODIPY-labeled GDP (400 nM) and recombinant SOS (10 nM) were added, and the reaction was incubated for 30 minutes.
(In general: In TR-FRET formats the signal depends on donor and acceptor labels being close together.)

Assay [2] concerns the target T1, KRAS G12D. The assay can be described thus: KRAS G12D RAF Disruption Assay (HTRF). It counts as biochemical. To be noted: recombinant GMPPNP-loaded KRAS G12D (5 nM), GST-RAF1 RBD (9 nM), HTRF signal. How it is done: Recombinant GMPPNP-loaded KRAS G12D (5 nM) was treated with compound at room temperature for 20 minutes in assay buffer (50 mM Tris pH 7.5, 100 mM NaCl, 1 mM MgCl2, 1 mM DTT, 100 ug/mL BSA).

T1 sequence (P01116-2 other isoform, or with tags, fused parts or gaps G12D): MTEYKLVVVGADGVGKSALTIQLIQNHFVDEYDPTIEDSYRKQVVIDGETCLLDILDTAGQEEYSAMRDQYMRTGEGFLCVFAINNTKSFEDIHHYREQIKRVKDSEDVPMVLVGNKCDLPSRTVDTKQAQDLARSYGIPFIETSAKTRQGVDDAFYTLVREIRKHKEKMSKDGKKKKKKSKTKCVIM

Take `Cc1cc(N)nc(-c2c(Cl)cc3c(N4CC[C@H]5CC[C@@H](C4)N5)nc(OCC4(CN5CCCC(F)C5)CC4)nc3c2F)c1C(F)(F)F` (stereo partly drawn) [Example 10-10, 6-{6-chloro-4-[(1S,6R)-3,9-diazabicyclo[4.2.1]nonan-3-yl]-8-fluoro-2-({1-[(3-fluoropiperidin-1-yl)methyl]cyclopropyl}methoxy)quinazolin-7-yl}-4-methyl-5-(trifluoromethyl)pyridin-2-amine]: the “KRASG12D Nucleotide Exchange Assay (IC50, µM)” value in assay [1] is 0.02 µM. The “KRASG12D RAF Disruption Assay (IC50, µM)” value in assay [2] came out at 2.4 µM.
Consider `C#Cc1c(F)ccc2cc(O)cc(-c3ccc4c(N5CC[C@H]6CC[C@@H](C5)N6)nc(OCC5(CN(C)C)CC5)nc4c3F)c12` [Example 11-1, 4-{4-[(1S,6R)-3,9-diazabicyclo[4.2.1]nonan-3-yl]-2-({1-[(dimethylamino)methyl]cyclopropyl}methoxy)-8-fluoroquinazolin-7-yl}-5-ethynyl-6-fluoronaphthalen-2-ol], for which the “KRASG12D Nucleotide Exchange Assay (IC50, µM)” value in assay [1] is 0.06 µM. Moreover, in assay [2], the “KRASG12D RAF Disruption Assay (IC50, µM)” value was determined as 2.7 µM.
For the compound `Oc1cc(-c2ccc3c(N4CC[C@H]5CC[C@@H](C4)N5)nc(OC[C@@]45CCCN4C[C@H](F)C5)nc3c2F)c2c(F)cccc2c1` [Example 11-2, 4-(2-{[(2R,7aS)-2-fluoro-hexahydro-1H-pyrrolizin-7a-yl]methoxy}-4-[(1S,6R)-3,9-diazabicyclo[4.2.1]nonan-3-yl]-8-fluoroquinazolin-7-yl)-5-fluoronaphthalen-2-ol], in assay [1], the “KRASG12D Nucleotide Exchange Assay (IC50, µM)” value is listed as 0.01 µM. In assay [2], the “KRASG12D RAF Disruption Assay (IC50, µM)” value is recorded as 1.0 µM.
For `Nc1cc2cccc(F)c2c(-c2ccc3c(N4CC[C@H]5CC[C@@H](C4)N5)nc(OC[C@@]45CCCN4C[C@H](F)C5)nc3c2F)n1` [Example 11-4, 1-(2-{[(2R,7aS)-2-fluoro-hexahydro-1H-pyrrolizin-7a-yl]methoxy}-4-[(1S,6R)-3,9-diazabicyclo[4.2.1]nonan-3-yl]-8-fluoroquinazolin-7-yl)-8-fluoroisoquinolin-3-amine] the same measures were 2.2 µM and 43.1 µM.
For `CCc1cccc2cc(O)cc(-c3ccc4c(N5CC[C@H]6CC[C@@H](C5)N6)nc(OC[C@@]56CCCN5C[C@H](F)C6)nc4c3F)c12` [Example 11-5, 4-(2-{[(2R,7aS)-2-fluoro-hexahydro-1H-pyrrolizin-7a-yl]methoxy}-4-[(1S,6R)-3,9-diazabicyclo[4.2.1]nonan-3-yl]-8-fluoroquinazolin-7-yl)-5-ethylnaphthalen-2-ol] the same measures were 0.03 µM and 3.2 µM.
On to `C#Cc1c(F)ccc2cc(O)cc(-c3ccc4c(N5CC[C@H]6CC[C@@H](C5)N6)nc(OC[C@@]56CCCN5C[C@H](F)C6)nc4c3F)c12` [Example 11-6, 4-(2-{[(2R,7aS)-2-fluoro-hexahydro-1H-pyrrolizin-7a-yl]methoxy}-4-[(1S,6R)-3,9-diazabicyclo[4.2.1]nonan-3-yl]-8-fluoroquinazolin-7-yl)-5-ethynyl-6-fluoronaphthalen-2-ol], for which the “KRASG12D Nucleotide Exchange Assay (IC50, µM)” value in assay [1] is given as 0.02 µM. Also, in assay [2], the “KRASG12D RAF Disruption Assay (IC50, µM)” value came to 0.17 µM.
For `Oc1cc(-c2ccc3c(N4CC[C@H]5CC[C@@H](C4)N5)nc(OC[C@@]45CCCN4C[C@H](F)C5)nc3c2F)c2ccccc2c1` [Example 11-7, 4-(2-{[(2R,7aS)-2-fluoro-hexahydro-1H-pyrrolizin-7a-yl]methoxy}-4-[(1S,6R)-3,9-diazabicyclo[4.2.1]nonan-3-yl]-8-fluoroquinazolin-7-yl)naphthalen-2-ol] the same measures were 0.06 µM and 5.1 µM.
`CCc1cccc2cccc(-c3ccc4c(N5CC[C@H]6CC[C@@H](C5)N6)nc(OC[C@@]56CCCN5C[C@H](F)C6)nc4c3F)c12` [Example 11-8, 2-{[(2R,7aS)-2-fluoro-hexahydro-1H-pyrrolizin-7a-yl]methoxy}-4-[(1S,6R)-3,9-diazabicyclo[4.2.1]nonan-3-yl]-7-(8-ethylnaphthalen-1-yl)-8-fluoroquinazoline]: the “KRASG12D Nucleotide Exchange Assay (IC50, µM)” value in assay [1] is given as 2.0 µM. In addition, the “KRASG12D RAF Disruption Assay (IC50, µM)” value in assay [2] stood at 54.4 µM.
For `Cc1cc(N)nc(-c2ccc3c(N4CC[C@H]5CC[C@@H](C4)N5)nc(OC[C@@]45CCCN4C[C@H](F)C5)nc3c2F)c1C(F)(F)F` [Example 12-1, 6-(2-{[(2R,7aS)-2-fluoro-hexahydro-1H-pyrrolizin-7a-yl]methoxy}-4-[(1S,6R)-3,9-diazabicyclo[4.2.1]nonan-3-yl]-8-fluoroquinazolin-7-yl)-4-methyl-5-(trifluoromethyl)pyridin-2-amine] the same measures were 0.03 µM and 6.3 µM.
For `Cc1cc(N)nc(-c2ccc3c(N4CC[C@H]5CC[C@@H](C4)N5)nc(OC[C@]45CCCN4C[C@H](F)C5)nc3c2F)c1C(F)(F)F` [Example 12-2, 6-(2-{[(2R,7aR)-2-fluoro-hexahydro-1H-pyrrolizin-7a-yl]methoxy}-4-[(1S,6R)-3,9-diazabicyclo[4.2.1]nonan-3-yl]-8-fluoroquinazolin-7-yl)-4-methyl-5-(trifluoromethyl)pyridin-2-amine] the same measures were 0.33 µM and 80.0 µM.
For `Cc1cc(N)nc(-c2ccc3c(N4CC[C@H]5CC[C@@H](C4)N5)nc(OCC45CCCN4CC(F)(F)C5)nc3c2F)c1C(F)(F)F` (stereo partly drawn) [Example 12-4, 6-{4-[(1S,6R)-3,9-diazabicyclo[4.2.1]nonan-3-yl]-2-[(2,2-difluoro-hexahydro-1H-pyrrolizin-7a-yl)methoxy]-8-fluoroquinazolin-7-yl}-4-methyl-5-(trifluoromethyl)pyridin-2-amine] the same measures were 1.1 µM and over 100 µM.
For the compound `Cc1cc(N)nc(-c2c(Cl)cc3c(N4CC[C@H]5CC[C@@H](C4)N5)nc(OC[C@@]45C[C@@H](F)CN4CC4(CC4)C5)nc3c2F)c1C(F)(F)F` [Example 13-1, 6-(2-{[(6′R, 7′aR)-6′-fluoro-hexahydrospiro[cyclopropane-1,2′-pyrrolizine]-7′a-yl]methoxy}-6-chloro-4-[(1S,6R)-3,9-diazabicyclo[4.2.1]nonan-3-yl]-8-fluoroquinazolin-7-yl)-4-methyl-5-(trifluoromethyl)pyridin-2-amine], the “KRASG12D Nucleotide Exchange Assay (IC50, µM)” value in assay [1] came to 0.01 µM. For the same compound, the “KRASG12D RAF Disruption Assay (IC50, µM)” value in assay [2] came to 0.22 µM.
